The source of these data is patent US11046722B2, “Sulphated disaccharides for the treatment of neuropathic pain” (BIOIBERICA, S.A.U., priority 2017, dated 2021).

The test system of assay [1] is mechanical allodynia induced in mice by intraplantar capsaicin injection. The assay can be described thus: Mechanical allodynia induced by intraplantar capsaicin injection (von Frey, latency to paw withdrawal). The class given is in vivo. An excerpt: Thus, in Example 1, an experimental trial is described performed on mice with mechanical allodynia induced by intraplantar capsaicin injection, according to the model described in the article by Entrena et al., Antagonism by haloperidol and its metabolites of mechanical hypersensitivity induced by intraplantar capsaicin in mice: role of sigma-1 receptors, Psychopharmacology, 2009, 205, 21-33. This trial is based on hypersensitivity induced in the mice by means of injecting capsaicin in the right hind paw. The allodynia is quantified by measuring the decrease in latency time in the hypersensitized mice until paw withdrawal, when a mechanical stimulus is applied to it.
For this trial, 6 groups of mice were used with between 8 and 12 animals in each group. […] 15 minutes after the injection, different mechanical stimuli were applied with a von Frey filament with a force of 0.5 g in an esthesiometer, and the values of the latency time until paw withdrawal were recorded. […]
In order to quantify the anti-allodynic effect, a value of 100% allodynia was assigned to the latency time of the animals injected with capsaicin and without pharmacological treatment (only treated with the vehicle). […]

The subject of assay [2] is allodynia induced in mice by injecting paclitaxel. The assay can be described thus: Neuropathic pain induced by chemotherapy (paclitaxel): reversal by a single dose after induction. Particulars: paclitaxel 2 mg/Kg i.p. for 5 days, day 10, single oral dose, increasing doses 7.5, 15 and 30 mg/Kg, 45 minutes after administration. The class given is in vivo. On the procedure: In Example 3 an experimental model is used in mice based on inducing allodynia by intraperitoneal injection of paclitaxel, as described in the articles by Smith et al., Paclitaxel-induced neuropathic hypersensitivity in mice: responses in 10 inbred mouse strains, Life Sci., 2014, 2593-2604 and Palomano et al., Chemotherapy-evoked painful peripheral neuropathy, Pain Med., 2001, 2 (1), 8-14. In alternative trials, compound Ic was administered after allodynia induction by paclitaxel, or it was administered jointly with this chemotherapy medication. It is observed that compound Ic is effective at both reversing the allodynia induced by paclitaxel (FIG. 4), and preventing the development thereof when coadministered with paclitaxel (FIG. 5).
In this test, groups of mice between 7 and 12 animals were used, to which a daily dose of paclitaxel of 2 mg/Kg was administered by intraperitoneal route for 5 consecutive days (except for the control group). The evaluation of the induced mechanical allodynia was carried out on the 10th day after the first paclitaxel injection, and was quantified by using the von Frey filaments, according to the force threshold necessary to cause the paw withdrawal of the animal. […]

As to `CO[C@H]1O[C@H](COS(=O)(=O)[O-])[C@@H](OS(=O)(=O)[O-])[C@H](O[C@@H]2O[C@H](C(=O)[O-])[C@@H](O)[C@H](O)[C@H]2O)[C@H]1NC(C)=O.[Na+].[Na+].[Na+]` [Compound Ic, methyl 2-acetamido-2-desoxi-3-O-(β-D-glucopyranosyluronic acid)-4,6-di-O-sulfo-α-D-glucopyranoside trisodium salt], the anti-allodynic effect result in assay [1] (capsaicin 1 μg intraplantar, 3, 10 and 30 mg/Kg by gavage 45 minutes before the trial, effect dose-dependent) is listed as “notable anti-allodynic effect”. Besides, the “reduction of the allodynia” value in assay [1] (capsaicin, highest dose 30 mg/Kg by gavage 45 minutes before the trial, 100% = capsaicin + vehicle) was “more than 50%”. Further, in assay [2], the “reversal of paclitaxel-induced allodynia” value is “reversed the paclitaxel-induced allodynia”.
